Six compounds from US20230303564A1, “PYRIMIDINE RING COMPOUND” (MEDSHINE DISCOVERY INC., priority 2020, published 2023) can be followed below.

The target in experiment [1] is CDK2/CyclinA2 (Homo sapiens (Human), UniProt P24941). As to the kind of experiment: CDK2/CyclinA2 enzyme activity test (ADP-Glo). The experiment is classed as biochemical. Conditions: 50 μM ATP, 25° C. 60 minutes, read-out: CDK2/Cyclin A2 IC50. The procedure:
CDK2/CyclinA2 Enzyme Reaction System
(§1) Enzymes, substrates, ATP, and inhibitors were diluted by kinase buffer in the kit. The compounds to be tested were diluted 5-fold with a multi-channel pipette to the eighth concentration, that is, from 50 μM to 0.65 nM, the concentration of DMSO was 5%, and a double-hole experiment was set up. 1 μL of each concentration gradient of inhibitors, 2 μL of CDK2/CyclinA2 enzyme (1.6 ng), 2 μL mixture of substrate and ATP (50 μM ATP, 0.1 μg/μL substrate) were added to the microplates, and the final concentration gradient of the compound was 10 μM to 0.13 nM. The reaction system was reacted at 25° C. for 60 minutes. After the reaction, 5 μL of ADP-Glo reagent was added to each well, the reaction was carried out at 25° C. for 40 minutes, after the reaction was completed, 10 μL of kinase detection reagent was added to each well, the reaction was carried out at 25° C. for 30 minutes, the multiple label analyzer was used to read the chemiluminescence with an integration time of 0.5 seconds
(§2) The equation (Sample−Min)/(Max−Min)*100% was used to convert the raw data into inhibition rate, and the value of IC50 can be obtained by curve fitting with four parameters (obtained by log (inhibitor) vs. response-Variable slope mode in GraphPad Prism). The enzymatic inhibitory activity of the compounds of the present disclosure on CDK1/CyclinB1, CDK2/CyclinA2, CDK2/CyclinE1, CDK4/CyclinD1, CDK6/CyclinD1, CDK7/CyclinH/MAT1, CDK9/CyclinT1 was provided in Table 1.
In general terms: ADP-Glo first removes unused ATP, then detects ADP through luciferase.

The target of experiment [2] is CDK4/CyclinD1 (Homo sapiens (Human), UniProt P11802). As to the kind of experiment: CDK4/CyclinD1 enzyme activity test (LANCE Ultra TR-FRET). The experiment is classed as biochemical. Particulars: 350 μM ATP, 25° C. 120 minutes, read-out: CDK4/Cyclin D1 IC50. The protocol:
CDK4/CyclinD1 Enzyme Reaction System
(§3) Preparation of Kinase Buffer:
(§4) The composition of the buffer: 50 mM of hydroxyethylpiperazine ethanesulfonic acid solution at pH 7.5, 1 mM of ethylenediaminetetraacetic acid, 10 mM of magnesium chloride, 0.01% Brij-35, and 2 mM of dithiothreitol.
(§5) Enzymes, substrate LANCE Ultra ULight™-4E-BP-1(Thr37146) Peptide, ATP, and inhibitors were diluted by kinase buffer.
(§6) The compounds to be tested were diluted 5-fold with a multi-channel pipette to the eighth concentration, that is, from 40 μM to 0.512 nM, the concentration of DMSO was 4%, and a double-hole experiment was set up. […] The reaction system was reacted at 25° C. for 120 minutes. After the reaction, 5 μL mixture of EDTA and 2× LANCE™ Detection Buffer (1:1) were added to each well, the reaction was carried out at 25° C. for 5 minutes, after the reaction was completed, 5 μL of LANCE Ultra Eu-anti-P-4E-BP1(Thr37MS) (4 nM) was added to each well, the reaction was carried out at 25° C. for 60 minutes, the reaction signal was detected by Nivo instrument according to the principle of time-resolved fluorescence resonance energy transfer.
as §2

Experiment [3] addresses CDK6/CyclinD1 (Homo sapiens (Human), UniProt Q00534). As to the kind of experiment: CDK6/CyclinD1 enzyme activity test (LANCE Ultra TR-FRET). The experiment is classed as biochemical. Conditions: 250 μM ATP, 25° C. 120 minutes, read-out: CDK6/Cyclin D1 IC50. The protocol:
CDK6/CyclinD1 Enzyme Reaction System
as §3, §4, §5, §6, §2
(Time-resolved FRET reads energy transfer from a long-lived donor to a nearby acceptor.)

Experiment [4] concerns the target CDK1/CyclinB1 (Homo sapiens (Human), UniProt P06493). The experiment can be described thus: CDK1/CyclinB1 enzyme activity test (ADP-Glo). The experiment is classed as biochemical. Conditions: 25 μM ATP, 25° C. 120 minutes, read-out: CDK1/Cyclin B IC50. The protocol:
CDK1/CyclinB1 Enzyme Reaction System
as §1, with “CDK1/CyclinB1” for “CDK2/CyclinA2”, “(12.5” for “(1.6”, “(25” for “(50”, “adenosine triphosphate, 0.2” for “ATP, 0.1”, “120” for “60”, “seconds.” for “seconds”
as §2

In experiment [5] the target is CDK2/CyclinE1 (Homo sapiens (Human), UniProt P24941). As to the kind of experiment: CDK2/CyclinE1 enzyme activity test (ADP-Glo). The experiment is classed as biochemical. Conditions: 150 μM ATP, 25° C. 60 minutes, read-out: CDK2/Cyclin E1 IC50. The procedure: CDK2/CyclinE1 Enzyme Reaction System
as §1, with “CDK2/CyclinE1” for “CDK2/CyclinA2”, “(2” for “(1.6”, “(150” for “(50”, “seconds.” for “seconds”
as §2

In experiment [6] the target is CDK9/CyclinT1 (Homo sapiens (Human), UniProt P50750). The experiment can be described thus: CDK9/CyclinT1 enzyme activity test (ADP-Glo). The experiment is classed as biochemical. Particulars: 100 μM ATP, 25° C. 120 minutes, read-out: CDK 9/Cyclin T1 IC50. The procedure:
CDK9/CyclinT1 Enzyme Reaction System
as §1, with “of CDK9/CyclinT1” for “of CDK2/CyclinA2”, “enzyme (4” for “enzyme (1.6”, “ATP (100” for “ATP (50”, “ATP, 0.2” for “ATP, 0.1”, “for 120” for “for 60”, “0.5 seconds.” for “0.5 seconds”
as §2

In experiment [7] the test system is OVCAR-3 cells. As to the kind of experiment: Cell activity test, anti-proliferation (CellTiter Glo), OVCAR-3. The experiment is classed as cell-based, human. Conditions: OVCAR-3, 7 days of culture. The protocol: 2) Day 1: Laying Cell Plates
(6) 0.7 mL of cell suspension was pipetted into the counting cup, the cells were counted on ViCell XR, and the cell suspension was diluted separately with culture medium to the required cell concentration for laying cell plates: 1000/30 ul.
(7) Microplates (2 plates) were required, 100 uL of phosphate buffered saline was added to the peripheral wells of the 384-well plate, 30 uL of cell suspension was added to the other wells, and the cell plate was placed into incubator for culture.
(1) Compound preparation: the stock solution of the compound to be tested was 10 mM.
(2) The compound to be tested was diluted 3 times with DMSO for 10 gradients.
(2) The compound to be tested was diluted with culture medium, and the highest final concentration was 10 μM.
(4) 10 μL of the compound was pipetted into the 384-well plate, and then the cell plate was placed back into the incubator for culture.
4) Adding CTG and Reading the Plate
(1) After 7 days of culture, 50 ul CellTiter Glo was added to the cell plate, shaken for 10 minutes in the dark, and left at room temperature for 5 minutes.
(2) The plate was read on Envision with the program: US LUM 384 (CPS). The experiment was originally stored in the personal disk:
1. The mean and standard deviation of 0% inhibition (DMSO row, ZPE) and 100% inhibition (PBS row, HPE) were calculated;
2. Inhibition rate (%)=(1−(sample value-average value of 100% inhibition)/(average value of 0% inhibition-average value of 100% inhibition))*100;
3. The curve was fitted by GraphPad 8.0 software;

Experiment [8] concerns human ovarian cancer OVCAR-3 cells subcutaneous xenograft tumor. As to the kind of experiment: In vivo efficacy study, OVCAR-3 subcutaneous xenograft tumor BALB/c nude mouse model. The protocol:
In vivo efficacy study of human ovarian cancer OVCAR-3 cells subcutaneous xenograft tumor BALB/c nude mouse model
Cell culture: Human ovarian cancer OVCAR-3 cells were monolayer cultured in vitro, the culture conditions were 10% fetal bovine serum, 100 U/mL Penicillin and 100 μg/mL Streptomycin were added in RPMI 1640 medium, cultured at 37° C. 5% CO2 incubator. Conventional digestion with trypsin-EDTA was performed for passage. When the cell saturation was 80%/90% and the number reached the required level, the cells were collected, counted, and inoculated.
Animals: BALB/c nude mice, female, 6-8 weeks old, weighed 18-22 grams. A total of 95 (42+ additional 53) animals were needed, provided by the Experimental Animal Management Department of Shanghai Institute of Family Planning Sciences (formerly Shanghai Sipulbichem).
Tumor inoculation: 0.2 mL (1×10^7) OVCAR-3 cells (with matrix glue, volume ratio of 1:1) were subcutaneously inoculated on the right back of each mouse, and the mice were grouped administrated when the average tumor volume reached about 150 mm^3.
Dosage and frequency of administration: Day 0 to Day 7, 10 mg/kg; Day 7 to Day 14, 10 mg/kg; Day 14 to Day 21, 30 mg/kg;
Experimental index: The experimental index was used to examine whether tumor growth was inhibited, delayed or cured. Tumor diameters were measured with vernier calipers twice a week. The calculation formula of tumor volume was: V=0.5a×b^2, wherein a and b represented the long and short diameters of the tumor, respectively.

CDK6/CyclinD1, sequence (Q00534 whole entry): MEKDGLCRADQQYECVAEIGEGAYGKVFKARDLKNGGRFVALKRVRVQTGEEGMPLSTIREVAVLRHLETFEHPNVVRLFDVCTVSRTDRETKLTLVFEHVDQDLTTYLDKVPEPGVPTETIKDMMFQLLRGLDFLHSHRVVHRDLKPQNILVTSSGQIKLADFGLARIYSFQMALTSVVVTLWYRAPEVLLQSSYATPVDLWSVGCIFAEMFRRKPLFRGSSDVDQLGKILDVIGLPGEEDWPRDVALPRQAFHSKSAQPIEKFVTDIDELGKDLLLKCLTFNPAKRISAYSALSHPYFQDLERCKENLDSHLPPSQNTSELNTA
CDK6/CyclinD1, sequence (P24385 whole entry partner): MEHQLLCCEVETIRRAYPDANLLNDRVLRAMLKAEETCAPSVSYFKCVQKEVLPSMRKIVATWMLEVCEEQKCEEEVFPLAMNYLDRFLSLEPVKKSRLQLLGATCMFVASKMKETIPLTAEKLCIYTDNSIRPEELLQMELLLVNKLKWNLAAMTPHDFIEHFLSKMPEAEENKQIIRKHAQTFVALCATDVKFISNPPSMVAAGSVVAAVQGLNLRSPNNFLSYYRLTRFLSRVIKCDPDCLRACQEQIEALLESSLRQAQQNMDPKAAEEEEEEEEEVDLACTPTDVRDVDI
CDK4/CyclinD1, sequence (P11802 whole entry): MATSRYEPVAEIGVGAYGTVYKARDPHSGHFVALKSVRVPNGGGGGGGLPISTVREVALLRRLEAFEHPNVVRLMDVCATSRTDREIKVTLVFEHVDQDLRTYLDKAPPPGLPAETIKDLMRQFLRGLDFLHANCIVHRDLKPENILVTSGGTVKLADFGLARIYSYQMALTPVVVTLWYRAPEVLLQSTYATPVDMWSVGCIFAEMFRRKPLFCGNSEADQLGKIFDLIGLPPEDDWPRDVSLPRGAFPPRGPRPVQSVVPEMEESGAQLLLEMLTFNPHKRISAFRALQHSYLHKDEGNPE
CDK4/CyclinD1, sequence (P24385 whole entry partner): as the sequence (P24385 whole entry partner) above
CDK1/CyclinB1, sequence (P06493 whole entry): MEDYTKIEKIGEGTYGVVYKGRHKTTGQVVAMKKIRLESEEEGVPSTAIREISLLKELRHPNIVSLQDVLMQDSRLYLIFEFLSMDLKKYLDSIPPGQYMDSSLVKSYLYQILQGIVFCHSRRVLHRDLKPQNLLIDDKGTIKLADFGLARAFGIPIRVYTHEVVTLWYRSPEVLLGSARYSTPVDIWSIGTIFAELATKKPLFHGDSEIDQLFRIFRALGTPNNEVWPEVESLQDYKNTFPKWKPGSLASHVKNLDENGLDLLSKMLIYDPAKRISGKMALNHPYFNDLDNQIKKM
CDK1/CyclinB1, sequence (P14635 whole entry partner): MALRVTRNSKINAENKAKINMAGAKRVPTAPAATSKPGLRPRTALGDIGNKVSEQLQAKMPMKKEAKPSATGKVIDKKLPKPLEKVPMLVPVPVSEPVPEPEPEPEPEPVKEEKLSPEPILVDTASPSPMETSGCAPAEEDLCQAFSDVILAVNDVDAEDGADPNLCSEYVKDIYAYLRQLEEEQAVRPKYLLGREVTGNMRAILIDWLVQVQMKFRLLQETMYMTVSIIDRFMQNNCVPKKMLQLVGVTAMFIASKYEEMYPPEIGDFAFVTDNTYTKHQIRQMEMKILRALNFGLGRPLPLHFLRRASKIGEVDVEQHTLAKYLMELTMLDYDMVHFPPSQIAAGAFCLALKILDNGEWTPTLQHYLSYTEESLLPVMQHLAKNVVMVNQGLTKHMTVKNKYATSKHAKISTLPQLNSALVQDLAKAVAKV
CDK9/CyclinT1, sequence (P50750 whole entry): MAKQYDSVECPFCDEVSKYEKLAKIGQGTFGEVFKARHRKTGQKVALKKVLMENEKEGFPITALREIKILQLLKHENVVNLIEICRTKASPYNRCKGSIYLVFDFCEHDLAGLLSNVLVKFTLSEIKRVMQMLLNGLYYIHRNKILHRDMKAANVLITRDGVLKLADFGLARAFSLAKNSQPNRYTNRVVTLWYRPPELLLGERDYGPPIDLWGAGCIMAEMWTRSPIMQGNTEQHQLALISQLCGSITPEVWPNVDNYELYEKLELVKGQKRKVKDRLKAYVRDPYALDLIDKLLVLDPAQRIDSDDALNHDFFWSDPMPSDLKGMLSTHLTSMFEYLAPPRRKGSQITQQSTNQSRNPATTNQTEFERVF
CDK9/CyclinT1, sequence (O60563 whole entry partner): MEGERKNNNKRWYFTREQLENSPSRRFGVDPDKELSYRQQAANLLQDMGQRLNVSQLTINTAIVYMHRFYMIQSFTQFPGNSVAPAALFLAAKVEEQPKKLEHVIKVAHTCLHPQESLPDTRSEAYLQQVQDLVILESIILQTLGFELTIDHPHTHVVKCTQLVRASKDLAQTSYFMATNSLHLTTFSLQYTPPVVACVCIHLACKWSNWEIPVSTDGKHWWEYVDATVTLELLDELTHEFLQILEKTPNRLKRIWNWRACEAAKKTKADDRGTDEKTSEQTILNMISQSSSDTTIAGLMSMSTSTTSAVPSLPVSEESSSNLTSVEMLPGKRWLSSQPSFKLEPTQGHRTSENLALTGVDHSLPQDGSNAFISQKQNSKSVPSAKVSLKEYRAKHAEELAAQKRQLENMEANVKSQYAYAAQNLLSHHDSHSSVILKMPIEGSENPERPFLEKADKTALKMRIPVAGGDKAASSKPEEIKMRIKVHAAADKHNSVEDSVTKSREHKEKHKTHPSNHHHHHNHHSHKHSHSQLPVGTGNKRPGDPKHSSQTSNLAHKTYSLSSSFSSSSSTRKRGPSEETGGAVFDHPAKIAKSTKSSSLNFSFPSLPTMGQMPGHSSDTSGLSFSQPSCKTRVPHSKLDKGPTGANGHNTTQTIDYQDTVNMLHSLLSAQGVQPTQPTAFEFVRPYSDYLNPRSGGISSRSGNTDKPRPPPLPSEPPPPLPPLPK

As to `Cc1cc2cnc(NC3CCN(S(C)(=O)=O)CC3)nc2c(N[C@@H]2CCC[C@@]2(C)O)n1` (racemic) [Compound 6], the IC50 in experiment [1] turned out to be 0.52 nM; in experiment [2] it was 1.08 nM; in experiment [3], 1.56 nM.
`CS(=O)(=O)N1CCC(Nc2ncc3cc(C(F)F)nc(N[C@H]4CCCC4(F)F)c3n2)CC1` (single isomer, unassigned) [Compound 21]: the IC50 in experiment [4] was 8.48 nM; in experiment [5], 4.32 nM; in experiment [2], 0.46 nM; in experiment [3], 0.34 nM; in experiment [6], 15 nM; in experiment [7], 15 nM.
With `C[C@@]1(O)CCC[C@H]1Nc1nccc2cnc(NC3CCN(S(C)(=O)=O)CC3)nc12` [Compound 1], the IC50 in experiment [4] worked out at 2.72 nM; in experiment [1], 0.56 nM; in experiment [5], 1.67 nM; in experiment [2] it was 3.9 nM; in experiment [3], 2.28 nM.
Take `CS(=O)(=O)N1CCC(Nc2ncc3ccnc(NC4CCCC4)c3n2)CC1` [Compound 4]: the IC50 in experiment [1] was found to be 0.27 nM; in experiment [2] it was 1.5 nM; in experiment [3], 1.49 nM.
As for `C[C@@]1(O)CCC[C@H]1Nc1nc(C(F)F)cc2cnc(NC3CCN(S(C)(=O)=O)CC3)nc12` [Compound 14], the IC50 is 1.25 nM in experiment [1], 4.15 nM in experiment [5], 2.59 nM in experiment [2] and 1.69 nM in experiment [3].
Turning to `C[C@@H]1CCCN1c1nc(C(F)F)cc2cnc(NC3CCN(S(C)(=O)=O)CC3)nc12` [Compound 25], the IC50 was 4.02 nM in experiment [5], 0.46 nM in experiment [3] and below 1 nM in experiment [7]. In addition, the “Tumor volume (Day 0)” value in experiment [8] (Day 0 (at grouping), OVCAR-3 xenograft, BALB/c nude mice) was 151 mm^3. Also, the “Tumor volume (Day 7)” value in experiment [8] (Day 7, 10 mg/kg from day 0 to day 7) was found to be 226 mm^3. Further, in experiment [8] (Day 14, 10 mg/kg from day 0 to day 14), the “Tumor volume (Day 14)” value was 371 mm^3. Besides, the “Tumor volume (Day 21)” value in experiment [8] (Day 21, 10 mg/kg day 0 to day 14, 30 mg/kg from day 14 to day 21) is 611 mm^3.
